Measured values: publication PMC4619380, “Nicotinic Activity of Arecoline, the Psychoactive Element of "Betel Nuts", Suggests a Basis for Habitual Use and Anti-Inflammatory Activity” (PLoS ONE, 2015)
Entries after “also recorded” stand apart in the source; their conditions may differ. Like-named read-outs stand apart in the source and are kept apart here. Marks after values point to notes of the source that are not given here.

Assays:
human α7 nAChR = molecular target: T1, human α7 nAChR (Homo sapiens, UniProt P36544); assay: Two-electrode voltage clamp of Xenopus oocytes expressing α7 nAChR (co-injected with RIC-3); type: cell-based; conditions: for activation of α7 in the presence of PNU-120596: co-applied with 10 μM PNU-120596; for activation of α7 when applied alone (absence of PAM): no PNU-120596, compared to 60 μM ACh controls; for EC50: normalized to 60 μM ACh controls
T1 construct: host or cells: Xenopus laevis oocytes injected with cRNA
T1 sequence (P36544 23-502): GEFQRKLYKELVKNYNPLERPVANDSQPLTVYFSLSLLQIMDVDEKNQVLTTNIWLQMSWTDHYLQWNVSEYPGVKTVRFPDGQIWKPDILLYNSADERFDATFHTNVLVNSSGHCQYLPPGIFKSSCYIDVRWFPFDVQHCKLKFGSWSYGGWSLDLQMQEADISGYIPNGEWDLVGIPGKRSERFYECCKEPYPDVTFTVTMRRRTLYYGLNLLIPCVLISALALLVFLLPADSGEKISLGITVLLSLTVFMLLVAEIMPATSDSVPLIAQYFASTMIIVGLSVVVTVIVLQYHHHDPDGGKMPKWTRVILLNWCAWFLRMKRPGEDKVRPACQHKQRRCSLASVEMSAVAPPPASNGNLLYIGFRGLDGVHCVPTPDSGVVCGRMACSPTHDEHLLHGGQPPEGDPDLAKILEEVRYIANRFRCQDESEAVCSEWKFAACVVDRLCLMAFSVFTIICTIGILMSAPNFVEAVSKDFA
Procedure: (§1) Human nAChR clones and concatamers were obtained from Dr. J. Lindstrom (University of Pennsylvania, Philadelphia, PA). The human resistance-to-cholinesterase 3 (RIC-3) clone, obtained from Dr. M. Treinin (Hebrew University, Jerusalem, Israel), was co-injected with α7 to improve the level and speed of α7 receptor expression without affecting the pharmacological properties of the receptors. Subsequent to linearization and purification of the plasmid cDNAs, cRNAs were prepared using the mMessage mMachine in vitro RNA transfection kit (Ambion, Austin, TX).
Oocytes were surgically removed from mature Xenopus laevis frogs (Nasco, Ft. Atkinson, WI) and injected with appropriate nAChR subunit cRNAs as described previously. Frogs were maintained in the Animal Care Service facility of the University of Florida, and all procedures were approved by the University of Florida Institutional Animal Care and Use Committee. In brief, the frog was first anesthetized for 15–20 min in 1.5 L frog tank water containing 1 g of 3-aminobenzoate methanesulfonate buffered with sodium bicarbonate. The harvested oocytes were treated with 1.25 mg/ml collagenase (Worthington Biochemicals, Freehold, NJ) for 2 h at room temperature in calcium-free Barth’s solution (88 mM NaCl, 1 mM KCl, 2.38 mM NaHCO3, 0.82 mM MgSO4, 15 mM HEPES, and 12 mg/l tetracycline, pH 7.6) to remove the follicular layer. Stage V oocytes were subsequently isolated and injected with 50 nl of 5–20 ng nAChR subunit cRNA. Recordings were carried out 1–7 days after injection.
Experiments were conducted using OpusXpress 6000A (Molecular Devices, Union City, CA). Both the voltage and current electrodes were filled with 3 M KCl. Oocytes were voltage-clamped at -60 mV. The oocytes were bath-perfused with Ringer’s solution (115 mM NaCl, 2.5 mM KCl, 1.8 mM CaCl2, 10 mM HEPES, and 1 μM atropine, pH 7.2) at 2 ml/min for α7 receptors and at 4 ml/min for other subtypes. To evaluate the effects of experimental compounds compared to ACh-evoked responses of various nAChR subtypes expressed in oocytes, baseline conditions were defined by two initial applications of ACh made before test applications. The solutions were applied from a 96-well plate via disposable tips, and the test compounds were applied alone, co-applied with ACh, or co-applied with PNU-120596. For the concentration-response study, drug applications alternated between ACh controls and experimental compounds. Unless otherwise indicated, drug applications were 12 s in duration followed by a 181 s washout period for α7 receptors and 6 s with a 241 s washout for other subtypes. A typical recording for each oocyte constituted two initial control applications of ACh, an experimental compound application, and then a follow-up control application of ACh to determine the desensitization or rundown of the receptors. The control ACh concentrations were 60 μM for α7, 100 μM for α3β4, and 30 μM for α4β2. The responses of α4β2 and α3β4-expressing cells were measured as peak current amplitudes, and the α7 data were calculated as net charge, as previously described.
(§2) Data were collected at 50 Hz, filtered at 20 Hz, analyzed by Clampfit 9.2 (Molecular Devices) and Excel 2003 (Microsoft, Redmond, WA), and normalized to the averaged peak current or net-charge response of the two initial ACh controls for each oocyte. Data were expressed as means ± SEM from at least four oocytes for each experiment and plotted by Kaleidagraph 3.0.2 (Abelbeck Software, Reading, PA). Multi-cell averages were calculated for comparisons of complex responses. To permit better comparisons between experiments each single cell response was normalized to the average of the two initial controls obtained from that cell. Averages of the normalized data were calculated for each of the 10,500 points in each of the 210 s traces (acquired at 50 Hz), as well as the standard errors for those averages.

HS α4(2)β2(3) nAChR [1] = molecular target: T2, HS α4(2)β2(3) nAChR (Homo sapiens, UniProt P17787+P43681); conditions: cited from earlier work
T2 construct: host or cells: Xenopus laevis oocytes injected with cRNA
T2 sequence (P17787+P43681 fused): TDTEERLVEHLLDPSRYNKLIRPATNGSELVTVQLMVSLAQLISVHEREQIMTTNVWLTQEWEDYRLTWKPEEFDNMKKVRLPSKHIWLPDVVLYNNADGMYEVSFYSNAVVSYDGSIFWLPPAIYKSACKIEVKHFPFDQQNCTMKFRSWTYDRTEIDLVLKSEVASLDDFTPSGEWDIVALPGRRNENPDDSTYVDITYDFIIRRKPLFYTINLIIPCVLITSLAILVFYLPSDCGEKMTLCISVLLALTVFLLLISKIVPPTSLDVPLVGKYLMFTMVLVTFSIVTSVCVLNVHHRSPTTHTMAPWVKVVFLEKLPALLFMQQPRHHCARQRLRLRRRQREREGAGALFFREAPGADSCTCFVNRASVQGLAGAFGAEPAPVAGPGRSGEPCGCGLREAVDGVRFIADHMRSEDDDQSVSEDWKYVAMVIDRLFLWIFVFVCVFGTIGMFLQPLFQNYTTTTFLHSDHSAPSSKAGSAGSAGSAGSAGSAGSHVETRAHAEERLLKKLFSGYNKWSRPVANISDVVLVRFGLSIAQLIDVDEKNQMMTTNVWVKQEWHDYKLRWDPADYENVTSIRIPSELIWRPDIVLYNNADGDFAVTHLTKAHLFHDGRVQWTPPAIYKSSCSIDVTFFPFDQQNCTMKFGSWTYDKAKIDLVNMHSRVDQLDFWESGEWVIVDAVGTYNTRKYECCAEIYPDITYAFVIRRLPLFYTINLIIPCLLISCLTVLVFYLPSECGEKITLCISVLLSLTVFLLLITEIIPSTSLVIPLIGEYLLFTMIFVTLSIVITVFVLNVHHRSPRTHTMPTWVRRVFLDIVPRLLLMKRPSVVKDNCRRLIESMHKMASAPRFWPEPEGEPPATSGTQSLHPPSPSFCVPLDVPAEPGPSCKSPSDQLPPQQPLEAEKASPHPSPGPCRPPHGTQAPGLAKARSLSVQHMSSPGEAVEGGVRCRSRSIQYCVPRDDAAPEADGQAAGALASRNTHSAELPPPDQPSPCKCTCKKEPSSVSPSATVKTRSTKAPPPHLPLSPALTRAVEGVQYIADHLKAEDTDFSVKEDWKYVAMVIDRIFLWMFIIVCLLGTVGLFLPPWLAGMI
T2 sequence (P17787 26-502): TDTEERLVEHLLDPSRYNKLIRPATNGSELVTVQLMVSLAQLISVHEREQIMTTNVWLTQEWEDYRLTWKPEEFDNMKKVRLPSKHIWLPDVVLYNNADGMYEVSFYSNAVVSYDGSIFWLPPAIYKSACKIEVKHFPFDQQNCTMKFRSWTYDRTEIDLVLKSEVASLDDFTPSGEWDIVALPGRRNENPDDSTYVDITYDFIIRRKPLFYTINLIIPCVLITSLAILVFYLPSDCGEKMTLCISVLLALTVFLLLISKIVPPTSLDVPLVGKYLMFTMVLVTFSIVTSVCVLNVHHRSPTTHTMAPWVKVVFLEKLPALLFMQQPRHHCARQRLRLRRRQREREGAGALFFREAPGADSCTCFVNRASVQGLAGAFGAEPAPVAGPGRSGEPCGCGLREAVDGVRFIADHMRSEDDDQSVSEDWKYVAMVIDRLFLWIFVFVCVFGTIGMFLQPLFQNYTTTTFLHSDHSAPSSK

LS α4(3)β2(2) nAChR [2] = molecular target: T3, LS α4(3)β2(2) nAChR (Homo sapiens, UniProt P17787+P43681); conditions: cited from earlier work
T3 construct: host or cells: Xenopus laevis oocytes injected with cRNA
T3 sequence (P17787+P43681 fused): as the sequence (P17787+P43681 fused) above
T3 sequence (P43681 27-627): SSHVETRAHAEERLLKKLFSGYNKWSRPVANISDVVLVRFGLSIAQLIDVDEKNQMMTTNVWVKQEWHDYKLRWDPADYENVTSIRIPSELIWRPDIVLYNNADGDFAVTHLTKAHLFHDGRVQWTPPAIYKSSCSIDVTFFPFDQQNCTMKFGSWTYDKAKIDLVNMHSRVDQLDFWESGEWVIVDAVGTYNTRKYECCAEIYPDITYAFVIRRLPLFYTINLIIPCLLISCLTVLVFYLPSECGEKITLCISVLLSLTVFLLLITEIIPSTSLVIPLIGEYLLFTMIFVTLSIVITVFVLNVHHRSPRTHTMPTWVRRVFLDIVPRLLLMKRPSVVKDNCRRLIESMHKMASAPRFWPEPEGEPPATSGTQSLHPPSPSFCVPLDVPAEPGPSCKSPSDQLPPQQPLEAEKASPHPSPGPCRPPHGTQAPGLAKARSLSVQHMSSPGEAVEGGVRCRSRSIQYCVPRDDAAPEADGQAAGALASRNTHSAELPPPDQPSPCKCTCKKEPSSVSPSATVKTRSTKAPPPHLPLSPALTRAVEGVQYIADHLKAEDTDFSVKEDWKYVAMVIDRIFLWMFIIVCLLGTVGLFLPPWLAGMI

[3] = molecular target: T4, α6β2β3α4β2 concatamer nAChR (Homo sapiens, UniProt P17787+P43681+Q15825); set-up: method as in PMID 20923852; conditions: cited from earlier work
T4 sequence (Q15825 26-494): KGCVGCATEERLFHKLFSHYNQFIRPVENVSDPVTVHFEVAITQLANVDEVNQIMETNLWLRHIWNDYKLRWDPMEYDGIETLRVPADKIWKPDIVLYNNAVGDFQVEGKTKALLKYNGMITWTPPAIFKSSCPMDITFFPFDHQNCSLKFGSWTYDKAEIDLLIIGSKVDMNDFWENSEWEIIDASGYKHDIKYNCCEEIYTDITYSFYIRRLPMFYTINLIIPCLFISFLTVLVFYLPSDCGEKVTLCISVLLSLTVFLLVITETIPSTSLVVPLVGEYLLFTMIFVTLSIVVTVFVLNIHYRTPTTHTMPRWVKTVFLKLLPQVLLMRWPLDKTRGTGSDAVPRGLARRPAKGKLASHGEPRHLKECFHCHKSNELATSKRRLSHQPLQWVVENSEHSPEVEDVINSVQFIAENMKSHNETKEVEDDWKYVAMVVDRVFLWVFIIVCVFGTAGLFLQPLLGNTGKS
T4 sequence (P17787 26-502): as the sequence (P17787 26-502) above
T4 sequence (P43681 27-627): as the sequence (P43681 27-627) above
T4 sequence (Q05901 22-458 partner): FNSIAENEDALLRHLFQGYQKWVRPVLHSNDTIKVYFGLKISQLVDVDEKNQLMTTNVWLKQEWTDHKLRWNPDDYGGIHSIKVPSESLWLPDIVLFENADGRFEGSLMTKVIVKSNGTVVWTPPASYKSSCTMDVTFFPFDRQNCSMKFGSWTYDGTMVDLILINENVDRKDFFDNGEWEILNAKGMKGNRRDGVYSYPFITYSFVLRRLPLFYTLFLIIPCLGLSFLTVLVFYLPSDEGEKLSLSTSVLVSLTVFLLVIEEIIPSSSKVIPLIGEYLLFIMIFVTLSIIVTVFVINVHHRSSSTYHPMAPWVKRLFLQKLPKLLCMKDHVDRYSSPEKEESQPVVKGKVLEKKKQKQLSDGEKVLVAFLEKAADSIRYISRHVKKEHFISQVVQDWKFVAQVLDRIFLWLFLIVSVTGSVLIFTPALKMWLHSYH

[4] = tested on: α4β2 nAChR (mixed populations formed from monomers); assay: Two-electrode voltage clamp of Xenopus oocytes expressing α4β2 nAChR formed from monomers; type: cell-based, human; conditions: 100 μM arecoline; α4 and β2 monomers
Procedure: as §1, with “TX). […]” for “TX).”
(§3) Experiments were conducted using OpusXpress 6000A (Molecular Devices, Union City, CA). […] The responses of α4β2 and α3β4-expressing cells were measured as peak current amplitudes, and the α7 data were calculated as net charge, as previously described.
(§4) Data were collected at 50 Hz, filtered at 20 Hz, analyzed by Clampfit 9.2 (Molecular Devices) and Excel 2003 (Microsoft, Redmond, WA), and normalized to the averaged peak current or net-charge response of the two initial ACh controls for each oocyte. Data were expressed as means ± SEM from at least four oocytes for each experiment and plotted by Kaleidagraph 3.0.2 (Abelbeck Software, Reading, PA). Multi-cell averages were calculated for comparisons of complex responses. […]

HS α4(2)β2(3) nAChR [5] = molecular target: T2, HS α4(2)β2(3) nAChR; assay: Two-electrode voltage clamp of Xenopus oocytes expressing high sensitivity α4β2 nAChR (β2-α4 concatamer plus β2 monomer); type: cell-based
Procedure: as §1
(§5) Oocytes were surgically removed from mature Xenopus laevis frogs (Nasco, Ft. Atkinson, WI) and injected with appropriate nAChR subunit cRNAs as described previously. Frogs were maintained in the Animal Care Service facility of the University of Florida, and all procedures were approved by the University of Florida Institutional Animal Care and Use Committee. In brief, the frog was first anesthetized for 15–20 min in 1.5 L frog tank water containing 1 g of 3-aminobenzoate methanesulfonate buffered with sodium bicarbonate. […]
as §3
as §2, with “To permit better comparisons between experiments each single cell response was normalized to the average of the two initial controls obtained from that cell.” left out, “averages. […]” for “averages.”

LS α4(3)β2(2) nAChR [6] = molecular target: T3, LS α4(3)β2(2) nAChR; assay: Two-electrode voltage clamp of Xenopus oocytes expressing low sensitivity α4β2 nAChR (β2-α4 concatamer plus α4 monomer); type: cell-based
Procedure: as §1, with “TX). […]” for “TX).”
as §3, §4

[7] = molecular target: T4, α6β2β3α4β2 concatamer nAChR; assay: Two-electrode voltage clamp of Xenopus oocytes expressing the α6-containing concatamer; type: cell-based
Procedure: as §1, §5, §3
as §2, with “To permit better comparisons between experiments each single cell response was normalized to the average of the two initial controls obtained from that cell.” left out

[8] = set-up: method as in PMID 20412403; conditions: 90% of betel chewers, prior to chewing; cited from earlier work
[9] = 100 μM arecoline co-applied with 10 μM PNU-120596, 60 μM ACh controls, n = 7
[10] = co-applied with 30 μM PNU-120596, relative to 60 μM ACh controls

With CC(=O)OC(C)C[N+](C)(C)C (stereo not shown) [methacholine, reference compound] the “activation of α7 in the presence of PNU-120596” value (“activation of α7 … of PNU-120596” for short) (human α7 nAChR) was “not as active as arecoline” and the “activation of α7 when applied alone (absence of PAM)” value (from here on “activation of α7 when applied alone”) (human α7 nAChR) was “silent agonist”.
For C[N+](C)(C)CCOC(N)=O [carbachol, reference compound], the “activation of α7 … of PNU-120596” value (human α7 nAChR) was “stimulated α7 receptors under both conditions” and the “activation of α7 when applied alone” value (human α7 nAChR) was “stimulated α7 receptors under both conditions”.
For O=C1CCCN1CC#CCN1CCCC1 [oxotremorine, reference compound], the “activation of α7 … of PNU-120596” value (human α7 nAChR) was “relatively little additional activation” and the “activation of α7 when applied alone” value (human α7 nAChR) was “small but significant activation”.
For C[C@@H]1O[C@H](C[N+](C)(C)C)C[C@H]1O [muscarine, reference compound], the “activation of α7 … of PNU-120596” value (human α7 nAChR) was “failed to activate the receptors under either condition” and the “activation of α7 when applied alone” value (human α7 nAChR) was “failed to activate the receptors under either condition”.
For O=c1cccc2n1C[C@@H]1CNC[C@H]2C1 [cytisine], the “Imax relative to ACh” value (HS α4(2)β2(3) nAChR [1]) is listed as ≤ 0.05 ^a, the “Imax relative to ACh” value (LS α4(3)β2(2) nAChR [2]) is listed as 0.10 ± 0.02 ^a and the “Imax relative to ACh” value [3] is listed as 0.11 ± 0.03 ^c.
In the case of c1cnc2cc3c(cc2n1)[C@@H]1CNC[C@H]3C1 [varenicline], the “Imax relative to ACh” value (HS α4(2)β2(3) nAChR [1]) is given as 0.13 ^b, the “Imax relative to ACh” value (LS α4(3)β2(2) nAChR [2]) is given as 0.08 ^b and the “Imax relative to ACh” value [3] is given as 0.18 ± 0.11 ^c.
In the case of COC(=O)C1=CCCN(C)C1 [arecoline], the “effect on subsequent ACh-evoked responses” value (human α7 nAChR; 60 μM ACh applied after the test application and wash) is reported as “largely unaffected”, the “response relative to ACh maximum” value (human α7 nAChR; 100 μM arecoline applied alone, extrapolated from ACh controls and earlier ACh concentration-response studies) is reported as “less than 1%” and the “net charge of response relative to ACh controls” value (human α7 nAChR; [9]) is reported as 37 ± 10 times. For the same compound, the “peak amplitude of response relative to ACh controls” value (human α7 nAChR; [9]) was 9.6 ± 3.4 times, the EC50 (human α7 nAChR; co-applied with 30 μM PNU-120596, read-out: EC50, net charge) was 93 ± 2 µM and the EC50 (human α7 nAChR; co-applied with 30 μM PNU-120596, read-out: EC50, peak currents) was 60 ± 7 µM. The “Imax relative to ACh controls, net charge” value (human α7 nAChR; [10]) was 49 ± 1, the “Imax relative to ACh controls, peak currents” value (human α7 nAChR; [10]) was 15 ± 1 and the “activation of α7 when applied alone” value (human α7 nAChR) was “did not produce significant activation”. For the same compound, the IC50 (human α7 nAChR; simple co-application with 60 μM ACh, no PAM, read-out: IC50 for inhibiting 60 μM ACh-evoked responses) was over 1000 µM, the “response to arecoline (activation)” value [4] was “small but significant activity; also recorded: substantially larger and well above the threshold of detection” and the EC50 (HS α4(2)β2(3) nAChR [5]; HS α4β2, responses relative to ACh maximum) was 14 ± 3 µM. For the same compound, the “mecamylamine-sensitive steady-state activation relative to ACh maximum” value (HS α4(2)β2(3) nAChR [5]; prolonged bath application of 3 μM arecoline, revealed with 100 μM mecamylamine, seven cells) was about 1%, the “Imax relative to ACh” value (HS α4(2)β2(3) nAChR [5]; α4(2)β2(3)) was 0.054 ± 0.004 and the EC50 (LS α4(3)β2(2) nAChR [6]; LS α4β2, responses relative to ACh maximum) was 75 ± 7 µM. The “Imax relative to ACh” value (LS α4(3)β2(2) nAChR [6]; α4(3)β2(2)) was 0.036 ± 0.003, the “response to arecoline (activation)” value ([7]; 100 μM arecoline) was “small but significant activity; also recorded: substantially larger and well above the threshold of detection” and the EC50 ([7]; α6-containing receptor, responses relative to ACh maximum) was 21 ± 4 µM. The “Imax relative to ACh” value ([7]; α6β2β3α4β2) was 0.056 ± 0.003 and the “residual salivary level of arecoline” value [8] was “at least 400 nM”.
